Experimental findings from patent US7498336B2, “Deazaflavin compounds and methods of use thereof” (The United States of America as represented by the …, priority 2003, dated 2009) are described below.

Assay [1] deals with Normal human fibroblast MRC-5. Nature of the assay: Cell based assay for accumulation of MDM2 and p53 (immunoblot). The note with it: MRC-5 cells. The procedure:
Methods: Normal human fibroblast MRC-5 were chosen to determine whether the compounds from the high throughput screening can inhibit the E3 activity of Mdm2, i.e. stabilizing MDM2 and p53 in vivo. After being seeded in 12-well tissue culture cluster overnight, the cells were treated with 50 μM of the compounds for 8 hours. They were harvested with trypsin-EDTA, washed with PBS, and lysed with RIPA buffer. Following removal of insoluble pellet by centrifugation for 20 minutes at 10000 rpm, the lysate was separated on 4-20% gradient SDS-polyacrylamide gel and transferred onto nitrocellulose membrane. The membrane was then blotted with anti-p53 antibody (DO-1), anti-MDM2 antibodies (Ab-1 and Ab-2), anti-p27 (Santa Cruz), anti-Nedd4, and anti-p21Waf1 antibody. After extensive washing with PBS containing 0.5% Triton X-100, it was incubated with HRP-labeled donkey anti-mouse antibody and visualized using enhanced chemiluminescence.
(Immunoblotting shows a protein as a band on a membrane.)

The test system of assay [2] is E1A-transformed RPE cells. The assay can be described thus: Apoptosis in E1A-transformed RPE cells. The assay is classed as cell-based, human. As to conditions: FIG. 4 left. An excerpt: Cell-based assays include model systems where primary human epithelial cells (“normal cells”) are compared to the same cells expressing the adenovirus E1A oncogene (“transformed cells”). Activation of p53 was not toxic to normal cells, but activation of p53 in transformed cells induces p53-mediated apoptosis. High concentrations of wild type (wt) p53 protein can induce apoptosis in a variety of different tumor cells. Potential inhibitors of MDM2 would regulate the stability and function of p53 and MDM2. Preferably the assays measure number of cells undergoing apoptosis due to MDM2 induced p53 degradation in tumor cells in the presence or absence of candidate compounds as compared to normal cells in the presence or absence of candidate compounds. An increase in the number of these cells undergoing apoptosis in the presence of candidate compounds in tumor cells, as compared to normal untreated cells is indicative of a potential anti-tumor compound. […]
Apoptosis and cell death were determined by FACS analysis of sub-G1 nuclei or counting trypan blue-positive cells under microscope. Caspase activity was measured using fluorogenic substrate Ac-DEVD-AFC and CytoFluor multi-well plate reader (PerSeptive Biosystems). […]

Structures are written as SMILES. Square brackets hold non-standard residues; d marks the D form. Peptide text beside a SMILES is read from it. Nle = CCCC[C@H](N)C(=O)O

Take `CCCC[C@@H](C=O)NC(=O)[C@H](CC(C)C)NC(=O)[C@H](CC(C)C)NC(C)=O` [LLNL, reference compound] (Ac-Leu-Leu-[Nle]-aldehyde): in assay [1] (50 μM, 8 hours), the MDM2 level entry is “accumulated MDM2, p53, and p21”; the p53 level entry is “accumulated MDM2, p53, and p21”. In addition, the p21 level result in assay [1] (FIG. 3C) was “accumulated MDM2, p53, and p21”. The apoptosis entry in assay [2] is “markedly increased apoptosis”.

As for `COc1cccc2c1C(=O)c1c(O)c3c(c(O)c1C2=O)C[C@@](O)(C(=O)CO)C[C@@H]3O[C@H]1C[C@H](N)[C@H](O)[C@H](C)O1` [adriamycin, reference compound], in assay [1] (50 μM, 8 hours), the p53 level result is on record as “increased only p53”. The apoptosis entry in assay [2] is given as “markedly increased apoptosis”.
